# How the values were obtained:
# [1] = Inhibition of Frankliniella occidentalis MET (western flower thrips) total esterase activity
# [2] = Inhibition of Frankliniella occidentalis ACR (western flower thrips) total esterase activity
# [3] = Inhibition of Frankliniella occidentalis FOR (western flower thrips) total esterase activity
# [4] = Inhibition of Frankliniella occidentalis MLFOM (western flower thrips) total esterase activity
# [5] = tested on: Frankliniella occidentalis; assay: Resistance ratio, LC50 for Frankliniella occidentalis MLFOM (western flower thrips) to LC50 for Frankliniella occidentalis MET; assay type: functional
# [6] = tested on: Frankliniella occidentalis; assay: Insecticidal activity against Frankliniella occidentalis FOR (western flower thrips); assay type: functional, organism-based
# [7] = tested on: Frankliniella occidentalis; assay: Insecticidal activity against Frankliniella occidentalis MET (western flower thrips); assay type: functional
# [8] = tested on: Frankliniella occidentalis; assay: Insecticidal activity against Frankliniella occidentalis ACR (western flower thrips); assay type: functional, organism-based
# [9] = tested on: Frankliniella occidentalis; assay: Insecticidal activity against Frankliniella occidentalis MLFOM (western flower thrips); assay type: functional
# [10] = tested on: Frankliniella occidentalis; assay: Resistance ratio, LC50 for Frankliniella occidentalis MLFOM (western flower thrips) to LC50 for Frankliniella occidentalis ACR; assay type: functional
# [11] = tested on: Frankliniella occidentalis; assay: Resistance ratio, LC50 for Frankliniella occidentalis MLFOM (western flower thrips) to LC50 for Frankliniella occidentalis FOR; assay type: functional
Compound,IC50 [1] [µM],IC50 [2] [µM],IC50 [3] [µM],IC50 [4] [µM],RatioLC50 [5],"IC50 ([6]; Frankliniella occidentalis, FOR) [µM]",LC50 [7] [mgAi/L],"IC50 ([8]; Frankliniella occidentalis, ACR) [µM]",LC50 [9] [mgAi/L],RatioLC50 [10],LC50 [8] [mgAi/L],RatioLC50 [11],LC50 [6] [mgAi/L]
CCCCOCCOCCOCc1cc2c(cc1CCC)OCO2 [PIPERONYL BUTOXIDE],2160,2670,1910,2410,,,,,,,,,
CNC(=O)Oc1cc(C)c(SC)c(C)c1 [METHIOCARB],1.98,2.71,2.93,1.92,41,2.93,620,2.71,15,,,,
CC1(C)[C@H](C(=O)O[C@H](C#N)c2cccc(Oc3ccccc3)c2)[C@@H]1/C=C\C(=O)OC(C(F)(F)F)C(F)(F)F [ACRINATHRIN],,,,,,,,,9,1430,12870,,
"CCCCSP(=O)(SCCCC)SCCCC [S,S,S,-TRIBUTYLPHOSPHOROTRITHIOATE]",0.52,0.45,0.51,0.46,,,,,,,,,
CNC(=O)Oc1cccc(/N=C/N(C)C)c1 [FORMETANATE],,,,,,,,,765,,,26,20160

# Source: ChEMBL document CHEMBL3045127, “Esterase inhibition by synergists in the western flower thrips Frankliniella occidentalis” (Pest Manag Sci, 2011)
